In assay [1] the target is Histamine H3 receptor (Cavia porcellus, UniProt Q9JI35).
In assay [2] the target is Hrh3 protein (Rattus norvegicus, UniProt Q5PPG3).
Hrh3 protein, sequence (Q5PPG3 whole entry): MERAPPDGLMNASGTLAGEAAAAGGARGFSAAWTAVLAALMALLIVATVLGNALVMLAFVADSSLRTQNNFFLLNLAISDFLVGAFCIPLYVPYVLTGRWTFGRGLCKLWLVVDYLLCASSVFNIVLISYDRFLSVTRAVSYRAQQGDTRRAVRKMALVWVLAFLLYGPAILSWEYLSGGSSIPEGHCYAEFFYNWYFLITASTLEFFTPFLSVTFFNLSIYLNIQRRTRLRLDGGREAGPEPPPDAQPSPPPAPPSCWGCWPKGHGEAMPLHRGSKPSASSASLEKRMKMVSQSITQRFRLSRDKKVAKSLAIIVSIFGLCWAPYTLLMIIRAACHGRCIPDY

Histamine H3 receptor, sequence (Q9JI35 whole entry): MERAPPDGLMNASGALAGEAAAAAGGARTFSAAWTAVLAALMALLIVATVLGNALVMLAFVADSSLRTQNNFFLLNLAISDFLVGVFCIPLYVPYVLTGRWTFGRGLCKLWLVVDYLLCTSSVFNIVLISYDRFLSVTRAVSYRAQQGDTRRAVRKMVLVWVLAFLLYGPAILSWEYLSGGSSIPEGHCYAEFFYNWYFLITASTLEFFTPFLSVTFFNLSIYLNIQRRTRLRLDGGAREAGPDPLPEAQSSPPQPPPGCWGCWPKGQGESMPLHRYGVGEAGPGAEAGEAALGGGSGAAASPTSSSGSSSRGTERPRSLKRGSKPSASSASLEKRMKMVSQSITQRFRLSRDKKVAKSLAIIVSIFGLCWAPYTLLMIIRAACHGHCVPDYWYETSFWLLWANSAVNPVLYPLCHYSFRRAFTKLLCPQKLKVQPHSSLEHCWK

As usually defined, the Ki is the equilibrium dissociation constant of an inhibitor or competing ligand from its target. In the case of `C[C@@H](N)Cc1c[nH]cn1`, the Ki in assay [1] came to 813 nM.

Regarding `S=C(NC1CCCCC1)N1CCC(c2cnc[nH]2)CC1`, the Ki in assay [2] is 2.1 nM; in assay [1], 2 nM.

Regarding `c1ncc(CCN2CCCC2)[nH]1` [4-[2-(1-Pyrrolidinyl)ethyl]-imidazole], the Ki in assay [1] turned out to be 6 nM.

On to `C[C@H](N)Cc1c[nH]cn1` [CAS_75614-93-6], for which the results for the Ki in assay [2] and in assay [1] were 11 nM and 52 nM, respectively.

Turning to `NCCc1c[nH]cn1` [[3H]histamine], the Ki in assay [2] and in assay [1] was 100 nM in each case.
